Experimental data published in patent publication US12552825B2 (Zikani Therapeutics, Inc., priority 2019, dated 2026).
Values after ≈ are worked out from the molar mass of the structure shown.

What was measured:
Type in all cases: cell-based
K. pneumoniae MP-546 = test: MIC determination by CLSI broth dilution, K. pneumoniae MP-546; details: Klebsiella pneumoniae, MP546, CLSI broth dilution; strain MP-546
A. baumannii MP-15 = test: MIC determination by CLSI broth dilution, A. baumannii MP-15; details: Acinetobacter baumannii, MP15, strain MP-15, read-out: MIC A. baumanii MP-15
E. coli MP-4 = test: MIC determination by CLSI broth dilution, E. coli MP-4; details: Escherichia coli, MP4, CLSI broth dilution; strain MP-4
S. aureus MP-12 = test: microbe, parasite or virus in culture; details: Staphylococcus aureus, MP12, read-out: MIC S. aureus MP-12
P. aeruginosa MP-3 = test: MIC determination by CLSI broth dilution, P. aeruginosa MP-3; details: Pseudomonas aeruginosa, MP3, strain MP-3

Row | SMILES | MIC (K. pneumoniae MP-546) [µg/mL] | MIC (A. baumannii MP-15) [µg/mL] | MIC (E. coli MP-4) [µg/mL] | MIC (S. aureus MP-12) [µg/mL] | MIC (P. aeruginosa MP-3) [µg/mL]
1 | CO[C@]1(C)C[C@@H](C)CN(C)[C@@H](CCCN(C)C)COC(=O)C(C)(C)C(=O)[C@H](C)[C@H]1O[C@@H]1O[C@H](C)C[C@H](N(C)C)[C@H]1O [Compound 6, (3S,6R,8R,9R,10R)-9-(((2S,3R,4S,6R)-4-(dimethylamino)-3-hydroxy-6-methyltetrahydro-2H-pyran-2-yl)oxy)-3-(3-(dimethylamino)propyl)-8-methoxy-4,6,8,10,12,12-hexamethyl-1-oxa-4-azacyclotridecane-11,13-dione] | < 4 | > 32 | < 4 | > 32 | > 32
2 | CNC[C@H]1COC(=O)C(C)(C)C(=O)[C@H](C)[C@@H](O[C@@H]2O[C@H](C)C[C@H](N(C)C)[C@H]2O)[C@](C)(OC)C[C@@H](C)CN1C [Compound 9, (3S,6R,8R,9R,10R)-9-(((2S,3R,4S,6R)-4-(Dimethylamino)-3-hydroxy-6-methyltetrahydro-2H-pyran-2-yl)oxy)-8-methoxy-4,6,8,10,12,12-hexamethyl-3-((methylamino)methyl)-1-oxa-4-azacyclotridecane-11,13-dione] | 4 to 32 (≈ 7.36 to 58.9 µM) | > 32 | 4 to 32 (≈ 7.36 to 58.9 µM) | > 32 | > 32
3 | CO[C@]1(C)C[C@@H](C)CN(C)[C@@H](CCCN(C)C(C)C)COC(=O)C(C)(C)C(=O)[C@H](C)[C@H]1O[C@@H]1O[C@H](C)C[C@H](N(C)C)[C@H]1O [Compound 11, (3S,6R,8R,9R,10R)-9-(((2S,3R,4S,6R)-4-(dimethylamino)-3-hydroxy-6-methyltetrahydro-2H-pyran-2-yl)oxy)-3-(3-(isopropyl(methyl)amino)propyl)-8-methoxy-4,6,8,10,12,12-hexamethyl-1-oxa-4-azacyclotridecane-11,13-dione] | < 4 | > 32 | < 4 | 4 to 32 (≈ 6.52 to 52.1 µM) | > 32
4 | CO[C@]1(C)C[C@@H](C)CN(C)[C@@H](CN(C)C(=O)CN(C)C)COC(=O)C(C)(C)C(=O)[C@H](C)[C@H]1O[C@@H]1O[C@H](C)C[C@H](N(C)C)[C@H]1O [Compound 13, 2-(dimethylamino)-N-(((3S,6R,8R,9R,10R)-9-(((2S,3R,4S,6R)-4-(dimethylamino)-3-hydroxy-6-methyltetrahydro-2H-pyran-2-yl)oxy)-8-methoxy-4,6,8,10,12,12-hexamethyl-11,13-dioxo-1-oxa-4-azacyclotridecan-3-yl)methyl)-N-methylacetamide] | 4 to 32 (≈ 6.36 to 50.9 µM) | > 32 | 4 to 32 (≈ 6.36 to 50.9 µM) | > 32 | > 32
5 | C=C[C@@H]1COC(=O)C(C)(C)C(=O)[C@H](C)[C@@H](O[C@@H]2O[C@H](C)C[C@H](N(C)C)[C@H]2O)[C@](C)(OC)C[C@@H](C)CN1C [Compound 14, (3R,6R,8R,9R,10R)-9-(((2S,3R,4S,6R)-4-(Dimethylamino)-3-hydroxy-6-methyltetrahydro-2H-pyran-2-yl)oxy)-8-methoxy-4,6,8,10,12,12-hexamethyl-3-vinyl-1-oxa-4-azacyclotridecane-11,13-dione] | 4 to 32 (≈ 7.59 to 60.8 µM) | > 32 | 4 to 32 (≈ 7.59 to 60.8 µM) | > 32 | > 32
6 | CNC[C@H]1COC(=O)C(C)(C)C(=O)[C@H](C)[C@@H](O[C@@H]2O[C@H](C)C[C@H](N(C)C)[C@H]2O)[C@](C)(OC)C[C@@H](C)CN1 [Compound 15, (3S,6R,8R,9R,10R)-9-(((2S,3R,4S,6R)-4-(Dimethylamino)-3-hydroxy-6-methyltetrahydro-2H-pyran-2-yl)oxy)-8-methoxy-6,8,10,12,12-pentamethyl-3-((methylamino)methyl)-1-oxa-4-azacyclotridecane-11,13-dione] | > 32 | > 32 | 4 to 32 (≈ 7.55 to 60.4 µM) | > 32 | > 32
7 | CO[C@]1(C)C[C@@H](C)CN(C)[C@@H](CCCNC(C)C)COC(=O)C(C)(C)C(=O)[C@H](C)[C@H]1O[C@@H]1O[C@H](C)C[C@H](N(C)C)[C@H]1O [Compound 16, (3S,6R,8R,9R,10R)-9-(((2S,3R,4S,6R)-4-(dimethylamino)-3-hydroxy-6-methyltetrahydro-2H-pyran-2-yl)oxy)-3-(3-(isopropylamino)propyl)-8-methoxy-4,6,8,10,12,12-hexamethyl-1-oxa-4-azacyclotridecane-11,13-dione] | 4 to 32 (≈ 6.67 to 53.3 µM) | > 32 | < 4 | 4 to 32 (≈ 6.67 to 53.3 µM) | > 32
8 | CO[C@]1(C)C[C@@H](C)CN[C@H](CCSC)COC(=O)[C@H](C)C(=O)[C@H](C)[C@H]1O[C@@H]1OC(C)CC(N(C)C)C1O (stereo partly drawn) [Compound 202] | – | > 32 | > 32 | > 32 | > 32
9 | CO[C@]1(C)C[C@@H](C)CN[C@H](CC[S+](C)[O-])COC(=O)[C@H](C)C(=O)[C@H](C)[C@H]1O[C@@H]1OC(C)CC(N(C)C)C1O (stereo partly drawn) [Compound 203] | – | > 32 | > 32 | > 32 | > 32
10 | CO[C@]1(C)C[C@@H](C)CN[C@H](CO)COC(=O)[C@H](C)C(=O)[C@H](C)[C@H]1O[C@@H]1OC(C)CC(N(C)C)C1O (stereo partly drawn) [Compound 204] | – | > 32 | > 32 | > 32 | > 32
11 | CO[C@]1(C)C[C@@H](C)CN[C@@H](Cc2c[nH]cn2)COC(=O)[C@H](C)C(=O)[C@H](C)[C@H]1O[C@@H]1OC(C)CC(N(C)C)C1O (stereo partly drawn) [Compound 205] | – | > 32 | > 32 | > 32 | > 32
12 | CO[C@]1(C)C[C@@H](C)CN[C@@H](C)COC(=O)[C@H](C)C(=O)[C@H](C)[C@H]1O[C@@H]1OC(C)CC(N(C)C)C1O (stereo partly drawn) [Compound 206] | – | > 32 | 4 to 32 (≈ 8.22 to 65.8 µM) | > 32 | > 32
13 | CO[C@]1(C)C[C@@H](C)CN[C@H](C)COC(=O)[C@H](C)C(=O)[C@H](C)[C@H]1O[C@@H]1OC(C)CC(N(C)C)C1O (stereo partly drawn) [Compound 207] | – | > 32 | > 32 | > 32 | > 32
14 | CO[C@]1(C)C[C@@H](C)CN[C@@H](Cc2ccccc2)COC(=O)[C@H](C)C(=O)[C@H](C)[C@H]1O[C@@H]1OC(C)CC(N(C)C)C1O (stereo partly drawn) [Compound 208] | – | > 32 | > 32 | 4 to 32 (≈ 7.11 to 56.9 µM) | > 32
15 | CO[C@]1(C)C[C@@H](C)CN[C@@H](Cc2ccc(O)cc2)COC(=O)[C@H](C)C(=O)[C@H](C)[C@H]1O[C@@H]1OC(C)CC(N(C)C)C1O (stereo partly drawn) [Compound 209] | – | > 32 | > 32 | 4 to 32 (≈ 6.91 to 55.3 µM) | > 32
16 | CC[C@H]1OC(=O)[C@H](C)C(=O)[C@H](C)[C@@H](O[C@@H]2OC(C)CC(N(C)C)C2O)[C@](C)(OC)C[C@@H](C)CN[C@H]1C (stereo partly drawn) [Compound 210] | – | > 32 | > 32 | > 32 | > 32
17 | CC[C@H]1OC(=O)[C@H](C)C(=O)[C@H](C)[C@@H](O[C@@H]2OC(C)CC(N(C)C)C2O)[C@](C)(OC)C[C@@H](C)CN(C)[C@H]1C (stereo partly drawn) [Compound 211] | – | > 32 | > 32 | > 32 | > 32
18 | CO[C@]1(C)C[C@@H](C)CNC(CO)(CO)COC(=O)[C@H](C)C(=O)[C@H](C)[C@H]1O[C@@H]1OC(C)CC(N(C)C)C1O (stereo partly drawn) [Compound 212] | – | > 32 | > 32 | > 32 | > 32
19 | C=C[C@@H]1COC(=O)[C@H](C)C(=O)[C@H](C)[C@@H](O[C@@H]2OC(C)CC(N(C)C)C2O)[C@](C)(OC)C[C@@H](C)CN1 (stereo partly drawn) [Compound 213] | – | > 32 | > 32 | > 32 | > 32
20 | CC[C@@H]1COC(=O)[C@H](C)C(=O)[C@H](C)[C@@H](OC2OC(C)CC(N(C)C)C2O)[C@](C)(OC)C[C@@H](C)CN1 (stereo partly drawn) [Compound 215] | – | > 32 | > 32 | > 32 | > 32
21 | CO[C@]1(C)C[C@@H](C)CN[C@H](CNC2COC2)COC(=O)[C@H](C)C(=O)[C@H](C)[C@H]1O[C@@H]1O[C@H](C)C[C@H](N(C)C)[C@H]1O [Compound 216] | – | > 32 | 4 to 32 (≈ 7.17 to 57.4 µM) | > 32 | > 32
22 | CO[C@]1(C)C[C@@H](C)CN[C@H](CNCc2ccc(F)cn2)COC(=O)[C@H](C)C(=O)[C@H](C)[C@H]1O[C@@H]1O[C@H](C)C[C@H](N(C)C)[C@H]1O [Compound 217] | – | > 32 | > 32 | > 32 | > 32
23 | CO[C@]1(C)C[C@@H](C)CN[C@H](Cn2cc(-c3cccc(N)n3)nn2)COC(=O)[C@H](C)C(=O)[C@H](C)[C@H]1O[C@@H]1O[C@H](C)C[C@H](N(C)C)[C@H]1O [Compound 219, (3R,6R,8R,9R,10R)-3-((4-(6-aminopyridin-2-yl)-1H-1,2,3-triazol-1-yl)methyl)-9-(((2S,3R,4S,6R)-4-(dimethylamino)-3-hydroxy-6-methyltetrahydro-2H-pyran-2-yl)oxy)-8-methoxy-6,8,10,12-tetramethyl-1-oxa-4-azacyclotridecane-11,13-dione] | – | > 32 | > 32 | > 32 | > 32
24 | CO[C@]1(C)C[C@@H](C)CN[C@H](CNCCCCCCn2ccnn2)COC(=O)[C@H](C)C(=O)[C@H](C)[C@H]1O[C@@H]1O[C@H](C)C[C@H](N(C)C)[C@H]1O [Compound 220] | – | > 32 | > 32 | > 32 | > 32
25 | CO[C@]1(C)C[C@@H](C)CN[C@H](CN)COC(=O)[C@H](C)C(=O)[C@H](C)[C@H]1O[C@@H]1OC(C)CC(N(C)C)C1O (stereo partly drawn) [Compound 221] | > 32 | – | – | > 32 | –
